Data: patent publication US6897209B2, “Labelled factor XIIIa substrates” (GE Healthcare Limited, priority 1997, dated 2005)

How the values were obtained:
human plasma clots [1] = target: T1, human plasma clots (Homo sapiens, UniProt P00488); assay: Incorporation into human plasma clots (in vitro plasma clot assay); type: biochemical; details: for % specific uptake*: % retained with thrombin − % retained no thrombin; for % retained in plasma clot assay (with thrombin): human plasma with thrombin and calcium chloride, 60 minutes, ca. 20° C.
T1 construct: Factor XIII is transformed into its active form Factor XIIIa by thrombin in the presence of calcium ions; from tissue; host or cells: human plasma, clotted in vitro with thrombin and calcium chloride
T1 sequence (P00488 39-732): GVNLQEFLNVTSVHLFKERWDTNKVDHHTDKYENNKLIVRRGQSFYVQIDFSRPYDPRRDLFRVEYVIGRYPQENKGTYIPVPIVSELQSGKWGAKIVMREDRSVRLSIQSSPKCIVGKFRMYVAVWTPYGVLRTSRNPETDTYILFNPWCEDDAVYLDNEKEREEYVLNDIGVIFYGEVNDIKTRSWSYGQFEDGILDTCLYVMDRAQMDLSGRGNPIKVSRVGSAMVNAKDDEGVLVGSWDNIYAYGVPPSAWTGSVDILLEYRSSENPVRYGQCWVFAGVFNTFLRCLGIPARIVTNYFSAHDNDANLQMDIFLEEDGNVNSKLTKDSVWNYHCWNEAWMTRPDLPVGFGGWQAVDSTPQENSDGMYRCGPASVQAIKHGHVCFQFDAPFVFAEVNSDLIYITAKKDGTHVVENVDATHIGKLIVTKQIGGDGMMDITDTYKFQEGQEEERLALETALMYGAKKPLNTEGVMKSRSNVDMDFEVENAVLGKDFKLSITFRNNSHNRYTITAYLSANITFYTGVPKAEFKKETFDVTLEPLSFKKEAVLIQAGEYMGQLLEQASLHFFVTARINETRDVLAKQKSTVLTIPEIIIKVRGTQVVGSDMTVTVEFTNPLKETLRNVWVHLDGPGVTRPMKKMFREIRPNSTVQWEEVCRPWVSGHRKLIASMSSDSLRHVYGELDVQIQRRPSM
Experimental: (§1) Incorporation of radiolabelled substrates into fibrin was investigated by induction of an in vitro human plasma clot in the following manner. To a siliconised 5 ml glass vial was added, (a) 800 μl of Tris(hydroxymethyl)aminomethane buffered saline pH 7.5 containing calcium chloride (50 mM Tris, 150 mM sodium chloride, 4 mM calcium chloride.), (b) 40 μl of physiological salt solution containing 100 units of thrombin per ml, (c) 400 μl of human plasma containing the radiolabelled substrate at a concentration of typically 10 kBq/ml. To aid induction of clot a roughened glass rod was added to the reaction vial. Control vials were prepared similarly but with the omission of thrombin and calcium chloride.
(§2) The proportion of total radioactivity was calculated by counting in suitable detection apparatus.
(§3) The fraction of radioactivity retained on the filter, after subtraction of the non-specific binding determined from the control, is a measure of incorporation into the filtered clots.

human plasma clots [2] = assay: as above; type: biochemical; details: control vials without thrombin and calcium chloride, 60 minutes
Experimental: as §1, §2, §3

Factor XIIIa = target: T2, Factor XIIIa (Homo sapiens, UniProt P00488); assay: Factor XIIIa dependency of incorporation (dimethylcasein uptake, normal vs Factor XIII deficient plasma); type: biochemical; details: 1 KBq/ml, 60 minutes; uptake in normal plasma minus Factor XIII deficient plasma
T2 construct: Factor XIII is transformed into its active form Factor XIIIa by thrombin in the presence of calcium ions; from tissue; host or cells: human plasma
T2 sequence (P00488 39-732 limits assumed): T1 sequence (P00488 39-732)
Experimental: The assay was changed by replacing the mercaptoethanol with aprotinin at a final concentration of 2 μg/ml, and dimethylcasein (DMC) was used instead of casein.

[3] = tested on: clots induced in rat inferior vena cava; assay: Incorporation into clots induced in a rat model (rat inferior vena cava model); type: in vivo; details: rat IVC model
Experimental: The rats (Male Wistar, 250-350 g) were anaesthetised with 15% urethane. After laparotomy, the vena cava was isolated and freed of surrounding fat tissue. […] The average weight of the clots formed in this model was around 27 mg, n=32, (5-50 mg range). The so compounds were injected 5 min post-induction. After 60 min the animals were sacrificed and the clot removed, weighed and counted. Other tissues e.g. blood, lung, heart, were also dissected and counted. The uptake of tracer into the clot was determined as the relative concentration (cpm/g of clot by dose/g animal ) and clot to background tissue.

[4] = compound injected 5 min post-induction, clot removed after 60 min

| Compound | % specific uptake* (human plasma clots [1]) | % retained in plasma clot assay (with thrombin) (human plasma clots [1]) | % specific DMC casein uptake (Factor XIIIa) | % retained in plasma clot assay (no thrombin) (human plasma clots [2]) | Clot/Blood ([3]; 60 min) | Clot/Heart ([3]; 60 min) | Clot/Liver ([3]; 60 min) | Clot/Lung ([3]; 60 min) | % ID/g (clot uptake) [3, 4] | Relative conc (cpm/g of clot by dose/g animal) [3, 4] |
| --- | --- | --- | --- | --- | --- | --- | --- | --- | --- | --- |
| CC(=NO)C(C)(C)NCC(C)(CNC(=O)c1ccc(NC(=O)CCCCCN)cc1)CNC(C)(C)C(C)=NO (stereo not shown) [Compound 6, 3,3,6,9,9-pentamethyl-6-N-[4-N-(6aminohexanoyl)aminobenzoyl]aminomethyl-4,8-diazaundecane-2.10-dione dioxime] | 1.5% | 2% | 13% | 0.5% | – | – | – | – | – | – |
| 1-(4-(N-(5-aminopentyl)-amidosulphonyl)benzyl)-1,4,8,11-tetraazacyclotetradecane [Compound 20] | – | – | – | 0.6% | – | – | – | – | – | – |
| CC(=NO)C(C)(C)NCC(C)(CNC(=O)[C@@H](Cc1ccccc1)NC(=O)CCCCCN)CNC(C)(C)C(C)=NO (stereo partly drawn) [Compound 5, 3,3,6,9,9-pentamethyl-6-N-[N-(6-aminohexanoyl)-D-phenylalanyl]aminomethyl-4,8-diazaundecane-2,10-dione dioxime] | 4.1% | 6% | 10% | 1.9% | – | – | – | – | – | – |
| 3,3,6,9,9-pentamethyl-6-N-[α-N-(4-N-(5-aminopentyl)amidosulphonyl)benzoyl)amino-polethyleneglycol)-ω-carbonyl]aminomethyl-4,8-diazaundecane-2,10-dione dioxime [Compound 14] | 27.8% | 35% | – | 7.2% | 1.3 | 2.8 | 2.6 | 1.5 | 0.18 ± 0.03 % ID/g | 0.54 ± 0.11 |
| CC(=O)SCC(=O)NCC(=O)NCC(=O)NCC(=O)NCCCNC(=O)c1ccc(S(=O)(=O)NCCCCCN)cc1 [Compound 23, N-[S-acetyl-mercaptoacatylglycylglycylglycyl)-N′-(4-N-(5-aminopentyl)amidosulphonyl)benzoyl propane-1,3-diamine] | 14.2% | 16% | 24.5% | 0.8% | – | – | – | – | – | – |
| CC(=NO)C(C)(C)NCC(C)(CN)CNC(C)(C)C(C)=NO (stereo not shown) [Compound 2, 6-aminomethyl-3,3,6,9,9-pentamethyl-4,8-diazaundecane-2, 1 0-dione dioxime] | 1.7% | 2% | – | 0.3% | – | – | – | – | – | – |

Continued, in another order:

| % specific uptake* (human plasma clots [1]) | % retained in plasma clot assay (with thrombin) (human plasma clots [1]) | % specific DMC casein uptake (Factor XIIIa) | Compound | % retained in plasma clot assay (no thrombin) (human plasma clots [2]) | Clot/Blood ([3]; 60 min) | Clot/Heart ([3]; 60 min) | Clot/Liver ([3]; 60 min) | Clot/Lung ([3]; 60 min) | % ID/g (clot uptake) [3, 4] | Relative conc (cpm/g of clot by dose/g animal) [3, 4] |
| --- | --- | --- | --- | --- | --- | --- | --- | --- | --- | --- |
| 4.7% | 5% | 6% | CC(=NO)C(C)(C)NCC(C)(CNC(=O)[C@@H](CO)NC(=O)[C@@H](CO)NC(=O)[C@@H](CO)NC(=O)c1ccc(S(=O)(=O)NCCCCCN)cc1)CNC(C)(C)C(C)=NO (stereo partly drawn) [Compound 10, 3,3,6,9,9-pentamethyl-6-N-[N-(4-N-(5aminopentyl)amidosulphonyl)benzoyl-D-serine-D-serine-D-serine]aminomethyl-4,8-diazaundecane-2,10-dione dioxime] | 0.3% | – | – | – | – | – | – |
| 12.8% | 16% | 24% | CC(=NO)C(C)(C)NCC(C)(CNC(=O)N1CCN(CNC(=O)c2ccc(S(=O)(=O)NCCCCCN)cc2)CC1)CNC(C)(C)C(C)=NO (stereo not shown) [Compound 11, 3,3,6,9,9-pentamethyl-6-N-[4-N-{4-(N-(5-aminopentyl)amidosulphonyl)benzoyl}aminomethylpiperazinylcarbonyl]aminomethyl-4,8-diazaundecane-2,10-dione dioxime] | 3.2% | – | – | – | – | – | – |
| 15.5% | 20% | 29% | CC(=NO)C(C)(C)NCC(C)(CNC(=O)c1ccc(S(=O)(=O)NCCSCCN)cc1)CNC(C)(C)C(C)=NO (stereo not shown) [Compound 9, 3,3,6,9,9-pentamethyl-6-(4-(N-[(S-aminoethyl)thioethyl]amidosulphonyl)benzamidomethyl)4,8-diazaundecane-2,10-dione dioxime] | 4.5% | – | – | – | – | – | – |
